# Test results published in article PMC10333884, “Large‐scale phosphomimetic screening identifies phospho‐modulated motif‐based protein interactions” (Molecular Systems Biology, 2023).
# Non-standard residues stand in square brackets, D forms with d. Residues, ends and D or L forms follow the SMILES beside them. pT = C[C@@H](OP(=O)(O)O)[C@H](N)C(=O)O; pS = N[C@@H](COP(=O)(O)O)C(=O)O
# Key:
# bait protein domains = test: Phosphomimetic ProP-PD selection against the PM_HD2 library (NGS counts, confidence level, PES), any bait; format: binding, human; set-up: Confidence / Max confidence: scale not given here; conditions: bait ABL1_SH3__P00519_60_121; for Confidence / Promiscuity / Specificity: selection results by peptide; for Has possible phosphoregulated psite? (PES +2/-2, p<0.01) / Max confidence: hit given as wt version
# Experimental: Selections using the PM_HD2 phage library were performed as described previously with minor modification to the original protocol. The corresponding tag protein (either GST or MBP) was first used during negative selections. Selections were run for 4 days. • Bait and tag proteins (10–15 μg in 100 μl PBS) were immobilised in 96‐well MaxiSorb plate (NUNC) o.n. at 4°C. • Escherichia coli OmniMax bacteria were grown in 2YT medium supplemented with tetracycline (100 μg/ml) at 37°C and 200 rpm. • Plates with immobilised bait/tag proteins were blocked with 0.5% BSA in PBS for 1 h at 4°C. • Phage library (10 μl/well) was prepared by diluting 10× with PBS and adding one‐fourth of the volume of PEG/NaCl. For phage precipitation, prepared library was incubated for 10 min on ice followed by centrifugation for 10 min at 10,000 × g at 4°C. Phages were resuspended in 0.5% BSA, 0.05% Tween in PBS. • Plates with tag proteins were washed 4× with 0.05% Tween in PBS, and naïve phage library was added to each well (100 μl/well) and the plates incubated for 1 h at 4°C. • Plates with bait protein were washed 4× with 0.05% Tween in PBS, and nonbound phages were transferred from the tag protein plate and the plates incubated for 1 h at 4°C. • Plates were again washed 5× with 0.05% Tween in PBS, and bound phages were eluted with log‐phase OmniMax bacteria (100 μl/well) by incubating for 30 min at 37°C at 200 rpm. • M13K07 helper phage (10^12 cfu/ml) was added to each well and the plates incubated for 45 min at 37°C at 200 rpm. • Amplification took place o.n. by adding the eluted phages to 1.1 ml 2YT media supplemented with kanamycin (25 μg/ml), carbenicillin (50 μg/ml) and 0.3 μM IPTG in a 96‐deep‐well plate and incubating o.n. at 37°C at 200 rpm. • Bacteria were pelleted by centrifugation for 15 min at 1,700 × g at 4°C. The phage supernatant was pH‐adjusted by the addition of 10× PBS and remaining bacteria heat‐inactivated by incubating for 10 min at 60°C. Selections were repeated as described from (5).
# Based on the results from phage pool ELISAs, samples from selection Day 3 and 4 were selected for NGS, as described previously (Benz et al, [2022]). • Peptide coding regions were amplified and dual‐barcoded by PCR. 5 μl of the enriched phage pools (50 μl reactions) and a high‐fidelity phusion polymerase (Roche) were used for the PCR reaction. Amplification was confirmed by running the PCR product on 2% agarose gel with a 50 bp ladder. • PCR products (25 μl) were purified with 25 μl of Mag‐bind Total Pure NGS beads and normalised in the same step by taking 10 μl of each reaction after resuspension (Qiagen Elution buffer: 10 mM Tris‐Cl and 0.1 mM EDTA (pH 8.5)) from the beads. • The samples were cleaned up with a PCR purification kit (Qiagen) and subsequently run on a 2% agarose gel, and bands of the correct size (ca. 200 bp) were purified with the QIAquick Gel extraction Kit (Qiagen). From the columns, samples were eluted with 30 μl TE (10 mM Tris–HCl, 1 mM EDTA. pH 7.5) buffer and quantified with Quant‐iT PicoGreen dsDNA Assay Kit. • Samples were sequenced on MiSeq (MSC 2.5.0.5/RTA 1.18.54) with a 151 nt (Read1) setup using “Version3” chemistry. The Bcl to FastQ conversion was performed using bcl2fastq_v2.20.0.422 from the CASAVA software suite.
# The processing of sequencing data was performed as described in Ali et al ([2020]). In brief: Pooled results from ~500 selection experiments were demultiplexed by identifying unique combinations of 5′ and 3′ barcodes, sequences with an average quality score of 20 or more were conserved and their adaptors were trimmed, and DNA sequences translated using in‐house custom Python scripts. A table for each experiment was built containing peptide sequences associated with their sequencing counts. […]
# TSG101 UEV = target: T1, TSG101 UEV (Homo sapiens, UniProt Q99816); test: FP displacement assay, TSG101 UEV; format: binding; conditions: for Kd: read-out: KD values ± SEM; for IC50: Fig 4B, TSG101 UEV, technical triplicates, read-out: IC50 values of displacement curves, with SEM
# T1 construct: TSG101_UEV__Q99816_1_145; made in house; host or cells: Escherichia coli BL21-Gold(DE3)
# T1 sequence (Q99816 1-145): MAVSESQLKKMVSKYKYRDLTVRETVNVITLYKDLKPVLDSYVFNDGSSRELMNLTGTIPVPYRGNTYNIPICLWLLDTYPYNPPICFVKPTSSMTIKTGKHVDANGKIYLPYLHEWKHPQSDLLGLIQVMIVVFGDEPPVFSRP
# Experimental: (§1) FP experiments were performed as described previously (Kliche et al, [2021]). Shortly, in order to monitor the binding event, FITC‐labelled peptides were used (excitation 495 nm, emission: 535 nm) and the FP signal was recorded in mP on a SpectraMax iD5 Multi‐Mode Microplate Reader (Molecular Devices) by measuring the emitted light in two angels. The measurements were performed at room temperature and prepared in nonbinding black half area 96‐well microplates (Corning®; 50 μl/well). For measuring direct binding, that is saturation curves, a 1:1 dilution series of protein domain (25 μl/well) was generated in 50 mM sodium phosphate buffer pH 7.4 and the measurement performed with 5 nM FITC‐labelled peptide (25 μl/well). The buffer‐corrected values were subsequently plotted with PRISM and fitted to the quadratic equation (Gianni et al, [2005]).
# (§2) The 1:1 dilution series in this experiment was performed with the unlabelled peptide in 50 mM sodium phosphate buffer pH 7.4, so that each well‐contained unlabelled peptide (25 μl) at a certain concentration and pre‐formed complex (25 μl). The KD values of this indirectly monitored binding event were calculated as described previously (Nikolovska‐Coleska et al, [2004]). All measurements were at least in technical triplicates as well as biological duplicates when indicated. An amplitude shift between repeat measurements in the displacement experiments was occasionally observed due to variations in the protein preparations. If that was the case, the “active” protein concentration was back‐calculated according to the quadratic equation from the saturation curves performed in parallel. By comparing the active protein concentrations in the complex between different protein preparations, the amplitude was normalised.
# KPNA4 ARM Major = target: T2, KPNA4 ARM Major (Homo sapiens, UniProt O00629); test: FP displacement assay, KPNA4 ARM major pocket; format: binding; conditions: major pocket probe FITC-MYC 5 nM, 50 mM sodium phosphate pH 7.4, room temperature, at least three technical replicates, read-out: KD values ± SEM
# T2 construct: 60-487; GST (cleaved yes); made in house; host or cells: Escherichia coli BL21-Gold(DE3)
# T2 sequence (O00629 60-487): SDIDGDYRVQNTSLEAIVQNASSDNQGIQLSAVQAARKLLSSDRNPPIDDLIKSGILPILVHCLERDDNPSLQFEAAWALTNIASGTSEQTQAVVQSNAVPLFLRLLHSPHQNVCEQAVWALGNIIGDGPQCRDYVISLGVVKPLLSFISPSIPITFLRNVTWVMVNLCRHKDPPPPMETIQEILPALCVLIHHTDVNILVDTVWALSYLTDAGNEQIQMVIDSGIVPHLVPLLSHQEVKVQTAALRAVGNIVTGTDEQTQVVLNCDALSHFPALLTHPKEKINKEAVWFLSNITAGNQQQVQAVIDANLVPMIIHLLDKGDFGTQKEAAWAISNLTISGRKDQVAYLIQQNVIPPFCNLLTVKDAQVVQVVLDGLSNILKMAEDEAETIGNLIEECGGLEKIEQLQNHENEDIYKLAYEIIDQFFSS
# Experimental: as §1, §2
# KPNA4 ARM minor = target: T3, KPNA4 ARM minor (Homo sapiens, UniProt O00629); test: FP displacement assay, KPNA4 ARM minor pocket; format: binding; conditions: minor pocket probe FITC-NCOR2 5 nM, 50 mM sodium phosphate pH 7.4, room temperature, at least three technical replicates, read-out: KD values ± SEM
# T3 construct: 60-487; GST (cleaved yes); made in house; host or cells: Escherichia coli BL21-Gold(DE3)
# T3 sequence (O00629 60-487): as above
# Experimental: as §1, §2
# [1] = probe FITC-HIV2_Gag 5 nM, 50 mM sodium phosphate pH 7.4, room temperature, at least three technical replicates
compound,measurement,setting,value
PSYSPPDTSPANRSFV,Confidence,bait protein domains,2
same,Promiscuity,bait protein domains,1
same,Specificity,bait protein domains,1
CSCC[C@H](NC(=O)[C@@H]1CCCN1C(=O)[C@H](CO)NC(=O)[C@H](CC(C)C)NC(=O)[C@@H]1CCCN1C(=O)[C@H](C)NC(=O)[C@@H](NC(=O)[C@@H]1CCCN1C(=O)[C@H](CO)NC(=O)[C@H](CO)NC(=O)[C@H](C)NC(=O)CNC(=O)[C@H](CC(N)=O)NC(=O)[C@H](Cc1ccc(O)cc1)NC(C)=O)[C@@H](C)O)C(=O)N[C@@H](CO)C(=O)N1CCC[C@H]1C(N)=O [GJA1_269–283 wt] (Ac-YNGASSPTAPLSPMSP-NH2),Kd,TSG101 UEV; [1],232 ± 16 µM
"H3COC-QSIAREPS(pS/E)APSIPTPY-NH2 [PDCD6IP711–725 pS, phosphorylated PDCD6IP 711-725 peptide]",KD values ± SEM,TSG101 UEV; [1],n.b.
CC(=O)N[C@@H](CC(=O)O)C(=O)N[C@H](C(=O)N[C@@H](CCC(=O)O)C(=O)N[C@@H](Cc1c[nH]cn1)C(=O)NCC(=O)NCC(=O)N[C@@H](CCCCN)C(=O)N[C@@H](CCCNC(=N)N)C(=O)N[C@@H](CO)C(=O)N[C@@H](CCCNC(=N)N)C(=O)N[C@@H](CC(C)C)C(=O)N[C@H](C(=O)N1CCC[C@H]1C(=O)N[C@H](C(=O)N[C@@H](CO)C(=O)N[C@@H](Cc1ccc(O)cc1)C(N)=O)C(C)C)[C@@H](C)O)C(C)C [SQSTM1_258–272 wt] (Ac-DVEHGGKRSRLTPVSY-NH2),Kd,KPNA4 ARM Major,0.24 ± 0.04 µM
same,Kd,KPNA4 ARM minor,14 ± 0.7 µM
DAPPHYPPPSTAAAEP,Confidence,bait protein domains,3
same,Promiscuity,bait protein domains,4
same,Specificity,bait protein domains,0.8807
PATSPPKTPPQLEALQ [listing 1 of 2 here],"Has possible phosphoregulated psite? (PES +2/-2, p<0.01)",bait protein domains,yes
same,Max confidence,bait protein domains,3
SPPRPPPPPPLLGTVS,"Has possible phosphoregulated psite? (PES +2/-2, p<0.01)",bait protein domains,yes
same,Max confidence,bait protein domains,3
PPFSPPPSPRGEVERG,"Has possible phosphoregulated psite? (PES +2/-2, p<0.01)",bait protein domains,yes
same,Max confidence,bait protein domains,3
CC(=O)N[C@@H](Cc1c[nH]cn1)C(=O)N[C@@H](CO)C(=O)NCC(=O)N[C@@H](CC(N)=O)C(=O)N[C@H](C(=O)N[C@H](C(=O)N1CCC[C@H]1C(=O)N[C@H](C(=O)N[C@@H](C)C(=O)N1CCC[C@H]1C(=O)N1CCC[C@H]1C(=O)N[C@@H](Cc1ccc(O)cc1)C(=O)N[C@@H](CC(C)C)C(=O)N[C@@H](CCC(N)=O)C(=O)N[C@@H](CCC(=O)O)C(=O)N[C@@H](CO)C(N)=O)[C@@H](C)O)[C@@H](C)OP(=O)(O)O)C(C)C [PIP4P2_17–32 pS] (Ac-HSGNV[pT]PTAPPYLQES-NH2),IC50,TSG101 UEV,34 ± 10 µM
same,Kd,TSG101 UEV; [1],16 ± 3 µM
CSCC[C@H](NC(=O)[C@@H]1CCCN1C(=O)[C@H](COP(=O)(O)O)NC(=O)[C@H](CC(C)C)NC(=O)[C@@H]1CCCN1C(=O)[C@H](C)NC(=O)[C@@H](NC(=O)[C@@H]1CCCN1C(=O)[C@H](CO)NC(=O)[C@H](CO)NC(=O)[C@H](C)NC(=O)CNC(=O)[C@H](CC(N)=O)NC(=O)[C@H](Cc1ccc(O)cc1)NC(C)=O)[C@@H](C)O)C(=O)N[C@@H](CO)C(=O)N1CCC[C@H]1C(N)=O [GJA1_269–283 pS] (Ac-YNGASSPTAPL[pS]PMSP-NH2),IC50,TSG101 UEV,420 ± 29 µM
same,Kd,TSG101 UEV; [1],209 ± 8 µM
DAPPHYPPPSTAAASP [listing 1 of 2 here],Confidence,bait protein domains,2
same,Promiscuity,bait protein domains,3
same,Specificity,bait protein domains,0.7461
LTYPQYSPPQPRPGVI,"Has possible phosphoregulated psite? (PES +2/-2, p<0.01)",bait protein domains,yes
same,Max confidence,bait protein domains,4
PATSPPKTPPQLEALQ [listing 2 of 2 here],Confidence,bait protein domains,3
same,Promiscuity,bait protein domains,3
same,Specificity,bait protein domains,0.9995
DAPPHYPPPSTAAASP [listing 2 of 2 here],"Has possible phosphoregulated psite? (PES +2/-2, p<0.01)",bait protein domains,yes
same,Max confidence,bait protein domains,3
CC[C@H](C)[C@H](NC(=O)[C@H](CO)NC(=O)[C@H](CCC(N)=O)NC(C)=O)C(=O)N[C@@H](C)C(=O)N[C@@H](CCCNC(=N)N)C(=O)N[C@@H](CCC(=O)O)C(=O)N1CCC[C@H]1C(=O)N[C@@H](CO)C(=O)N[C@@H](C)C(=O)N1CCC[C@H]1C(=O)N[C@@H](CO)C(=O)N[C@H](C(=O)N1CCC[C@H]1C(=O)N[C@H](C(=O)N1CCC[C@H]1C(=O)N[C@@H](Cc1ccc(O)cc1)C(N)=O)[C@@H](C)O)[C@@H](C)CC [PDCD6IP711–725 wt] (Ac-QSIAREPSAPSIPTPY-NH2),IC50,TSG101 UEV,34 ± 10 µM
same,Kd,TSG101 UEV; [1],16 ± 3 µM
CC(=O)N[C@@H](Cc1c[nH]cn1)C(=O)N[C@@H](CO)C(=O)NCC(=O)N[C@@H](CC(N)=O)C(=O)N[C@H](C(=O)N[C@H](C(=O)N1CCC[C@H]1C(=O)N[C@H](C(=O)N[C@@H](C)C(=O)N1CCC[C@H]1C(=O)N1CCC[C@H]1C(=O)N[C@@H](Cc1ccc(O)cc1)C(=O)N[C@@H](CC(C)C)C(=O)N[C@@H](CCC(N)=O)C(=O)N[C@@H](CCC(=O)O)C(=O)N[C@@H](CO)C(N)=O)[C@@H](C)O)[C@@H](C)O)C(C)C [PIP4P2_17–32 wt] (Ac-HSGNVTPTAPPYLQES-NH2),Kd,TSG101 UEV; [1],14 ± 1 µM
PATSPPKEPPQLEALQ,Confidence,bait protein domains,2
same,Promiscuity,bait protein domains,2
same,Specificity,bait protein domains,0.9898
